Active and inactive are the calls of the source. The rule behind the calls is not given here.
What was measured:
[1] = biological target: T1, Albumin (Bos taurus, UniProt P02769); assay: Binding affinity to bovine serum albumin assessed as Stem-Volmer quenching constant at 310K by fluorescence spectroscopy; type: ADME; conditions: cattle, isolated protein
[2] = biological target: T1, Albumin; assay: Binding affinity to bovine serum albumin assessed as quenching constant at 298K by fluorescence spectroscopy; type: ADME; conditions: cattle, isolated protein
[3] = test system: SMMC-7721; assay: Cytotoxicity against human SMMC7721 cells assessed as inhibition of cell viability after 48 hrs by MTT assay; type: functional, cell-based
[4] = test system: MCF7; assay: Cytotoxicity against human MCF7 cells assessed as inhibition of cell viability after 48 hrs by MTT assay; type: functional, cell-based
[5] = biological target: Serotransferrin (Homo sapiens) (UniProt P02787); assay: Effect on transferrin (unknown origin) conformation at 4 to 20 uM by synchronous fluorescence spectroscopy
[6] = biological target: Serotransferrin (Homo sapiens) (UniProt P02787); assay: Binding affinity to transferrin (unknown origin) assessed as Stem-Volmer quenching constant at 310K by fluorescence spectroscopy
[7] = test system: Mus musculus; assay: Toxicity in mouse assessed as animal death at 0.43 to 1.72 mmol, ip; type: organism-based; conditions: in vivo
[8] = Half life in PBS solution at pH 7.4; type: ADME
[9] = test system: Mus musculus; assay: Toxicity in BALB/c nude mouse assessed as animal death at 0.023 mmol/kg, ip administered every 2 days for 3 times measured on day 6; type: organism-based; conditions: in vivo, 48 h
[10] = Half life in mouse plasma; type: ADME, cell-free
[11] = biological target: Serotransferrin (Homo sapiens) (UniProt P02787); assay: Binding affinity to transferrin (unknown origin) assessed as Stem-Volmer quenching constant at 298K by fluorescence spectroscopy
[12] = test system: MCF7; assay: Antitumor activity against human MCF7 cells xenografted in BALB/c nude mouse assessed as decrease in tumor volume at 0.023 mmol/kg, ip administered every 2 days for 3 times measured after day 6; type: functional
[13] = test system: Mus musculus; assay: Toxicity in mouse assessed as body weight loss at 1.72 mmol, ip; type: organism-based; conditions: in vivo
[14] = biological target: T1, Albumin; assay: Binding affinity to bovine serum albumin assessed as Stem-Volmer quenching constant at 298K by fluorescence spectroscopy; type: ADME; conditions: cattle, isolated protein
[15] = biological target: T1, Albumin; assay: Binding affinity to bovine serum albumin assessed as quenching constant at 310K by fluorescence spectroscopy; type: ADME; conditions: cattle, isolated protein
[16] = test system: Mus musculus; assay: Toxicity in BALB/c nude mouse assessed as body weight at 0.023 mmol/kg, ip administered every 2 days for 3 times measured on day 6 (reference value: 17.5 to 17.9 gms); type: organism-based; conditions: in vivo
[17] = test system: Mus musculus; assay: Toxicity in mouse assessed as body weight loss at 0.43 mmol, ip; type: organism-based; conditions: in vivo
[18] = test system: Mus musculus; assay: Toxicity in mouse assessed as animal death at 0.43 mmol, ip; type: organism-based; conditions: in vivo

Serotransferrin (Homo sapiens), sequence (P02787 whole entry): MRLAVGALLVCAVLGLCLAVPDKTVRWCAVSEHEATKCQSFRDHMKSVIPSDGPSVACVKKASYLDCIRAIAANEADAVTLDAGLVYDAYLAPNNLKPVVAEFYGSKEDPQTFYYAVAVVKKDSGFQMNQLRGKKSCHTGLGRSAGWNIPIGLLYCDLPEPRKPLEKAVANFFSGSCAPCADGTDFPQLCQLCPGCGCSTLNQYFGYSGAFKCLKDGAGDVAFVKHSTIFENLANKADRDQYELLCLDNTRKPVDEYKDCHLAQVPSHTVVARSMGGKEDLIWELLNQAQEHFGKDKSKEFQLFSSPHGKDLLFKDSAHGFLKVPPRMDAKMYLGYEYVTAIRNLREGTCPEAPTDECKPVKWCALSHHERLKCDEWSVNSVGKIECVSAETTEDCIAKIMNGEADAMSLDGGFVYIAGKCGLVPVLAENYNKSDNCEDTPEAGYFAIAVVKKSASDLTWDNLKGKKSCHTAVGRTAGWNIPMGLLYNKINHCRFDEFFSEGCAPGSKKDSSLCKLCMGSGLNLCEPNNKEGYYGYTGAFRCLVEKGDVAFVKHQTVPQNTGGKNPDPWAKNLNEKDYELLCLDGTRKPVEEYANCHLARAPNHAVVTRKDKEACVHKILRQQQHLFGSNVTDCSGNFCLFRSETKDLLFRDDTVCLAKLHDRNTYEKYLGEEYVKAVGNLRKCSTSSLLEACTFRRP
T1 sequence (P02769 whole entry): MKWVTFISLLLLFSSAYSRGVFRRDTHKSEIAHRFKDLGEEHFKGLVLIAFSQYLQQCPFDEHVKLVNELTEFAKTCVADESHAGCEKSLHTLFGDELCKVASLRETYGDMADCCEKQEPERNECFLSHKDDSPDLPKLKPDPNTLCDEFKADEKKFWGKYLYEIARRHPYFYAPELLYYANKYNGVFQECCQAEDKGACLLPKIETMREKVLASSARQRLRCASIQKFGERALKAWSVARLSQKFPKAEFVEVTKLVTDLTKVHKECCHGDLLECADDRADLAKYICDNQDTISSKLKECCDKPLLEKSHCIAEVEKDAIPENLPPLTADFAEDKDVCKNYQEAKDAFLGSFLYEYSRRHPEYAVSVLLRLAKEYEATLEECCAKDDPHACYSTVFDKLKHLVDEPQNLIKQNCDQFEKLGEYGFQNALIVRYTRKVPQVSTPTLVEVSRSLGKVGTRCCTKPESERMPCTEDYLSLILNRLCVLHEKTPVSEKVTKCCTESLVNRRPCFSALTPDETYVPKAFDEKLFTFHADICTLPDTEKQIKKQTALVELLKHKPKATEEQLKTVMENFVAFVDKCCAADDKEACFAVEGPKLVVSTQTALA

Row | SMILES | KSV [1] | Kq [2] | inhibition [3] | inhibition [4] | Activity [5] | KSV [6] | Activity [7] | half-life [8] | Activity [9] | half-life [10] | KSV [11] | inhibition in vivo at 23 µmol/kg [12] | Activity [13] | KSV [14] | Kq [15] | Activity [16] | Activity [17] | Activity [18]
1 | CC[C@@]1(OC(=O)CCC(=O)O[C@@H]2O[C@@H]3O[C@@]4(C)CC[C@H]5[C@H](C)CC[C@@H]([C@H]2C)[C@@]35OO4)C(=O)OCc2c1cc1n(c2=O)Cc2cc3c(CN(C)C)c(O)ccc3nc2-1 | 1.03 ×10⁴ L/mol | 2.27 ×10¹² L/mol/s | Dose-dependent effect | Dose-dependent effect | inactive | 2.22 ×10⁴ L/mol | Non-toxic | 15 h | Non-toxic | 4 h | 2.36 ×10⁴ L/mol | 50.2% | Toxic | 2.27 ×10⁴ L/mol | 1.03 ×10¹² L/mol/s | 15.5 g | – | –
2 | C[C@H]1[C@H](OC(=O)CCC(=O)O)O[C@@H]2O[C@@]3(C)CC[C@H]4[C@H](C)CC[C@@H]1[C@@]24OO3 [ARTESUNATE] | – | – | Active | Active | – | – | – | – | Non-toxic | – | – | – | – | – | – | 16.1 g | Toxic | –
3 | CC[C@@]1(O)C(=O)OCc2c1cc1n(c2=O)Cc2cc3ccccc3nc2-1 [CAMPTOTHECIN] | 3.345 ×10⁴ L/mol | 3.626 ×10¹² L/mol/s | Active | Active | inactive | 2.62 ×10⁴ L/mol | – | – | Toxic | – | 4.35 ×10⁴ L/mol | 45.3% | – | 3.626 ×10⁴ L/mol | 3.345 ×10¹² L/mol/s | 11.3 g | Toxic | Toxic
4 | CC[C@@]1(O)C(=O)OCc2c1cc1n(c2=O)Cc2cc3c(CN(C)C)c(O)ccc3nc2-1 [TOPOTECAN] | – | – | – | – | – | – | – | – | Toxic | – | – | 70.2% | – | – | – | 13.6 g | – | –

Reference: ChEMBL document CHEMBL3580535, “The biological characteristics of a novel camptothecin-artesunate conjugate” (Bioorg Med Chem Lett, 2015)
